Results taken from patent US10759781B2, “Substituted guanidine derivatives” (UBE INDUSTRIES, LTD., priority 2015, dated 2020).

Key:
[1] = system: Human normal glomerular microvascular endothelial cells; type: cell-based; conditions: 2 days, 100 nM
Procedure: The Cytotoxicity Inhibition Test in Human Normal Glomerular Microvascular Endothelial Cells
(§1) Human normal glomerular microvascular endothelial cells were plated at 6000 cells/well in a collagen-coated 96-well culture plate. After one day of culture, the medium at each well was completely removed by aspiration and replaced with 50 μL of the compound solution diluted with the basal medium. The basal medium containing 0.1% DMSO was added to control wells. Following, the plate was incubated in CO2 incubator for 30 minutes. Fifty microliter of 2 mM methylamine diluted with the basal medium was added (final concentration 1 mM) to each negative control well (0% inhibition) as well as the compound-containing well, and 50 μL of the basal medium was added to each positive control well (100% inhibition). The plate was incubated in CO2 incubator for 2 days. Ten microliter of CCK-8 was added to each well and the mixtures were incubated in a plate incubator at 37° C. for approximately 2 hours after stirring with a plate shaker. The absorbance of the mixtures at 450 nm was measured with a multiplate reader. The cytotoxicity inhibition ratio of the compound was calculated from the following equation. Inhibition ratio={[Average absorbance of the compound-containing wells]−[Average absorbance of negative control wells]}/{[Average absorbance of positive control wells]−[Average absorbance of negative control wells]}×100

[2] = system: Human normal hepatic sinusoid-like microvascular endothelial cells; type: cell-based; conditions: 2 days, 300 nM
Procedure: The Cytotoxicity Inhibition Test in Human Normal Hepatic Sinusoid-Like Microvascular Endothelial Cells
as §1, with “hepatic sinusoid-like” for “glomerular”

Row | Structure (SMILES) | cytotoxicity inhibition ratio [1] | cytotoxicity inhibition ratio [2]
1 | [2H]C([2H])([2H])ON=C1CN(c2ncc(-c3cccc(COC(=O)NC(=N)N)c3F)cc2F)C1 [Example 37, 2-fluoro-3-(5-fluoro-6-{3-[(methoxy-d3)imino]azetidin-1-yl}pyridin-3-yl)benzyl carbamimidoylcarbamate] | ≥ 50% | ≥ 50%
2 | N=C(N)NC(=O)OCc1cccc(-c2cnc(N3CC(=NOCC(F)CO)C3)nc2)c1F (stereo not shown) [Example 102, 2-Fluoro-3-(2-{3-[(2-fluoro-3-hydroxypropoxy)imino]azetidin-1-yl}pyrimidin-5-yl)benzyl carbamimidoylcarbamate] | ≥ 50% | ≥ 50%
3 | N=C(N)NC(=O)OCc1cccc(-c2cnc(N3CC(=NOCCC(O)CO)C3)c(F)c2)c1F (stereo not shown) [Example 95, 3-(6-{3-[(3,4-Dihydroxybutoxy)imino]azetidin-1-yl}-5-fluoropyridin-3-yl)-2-fluorobenzyl carbamimidoylcarbamate] | ≥ 50% | ≥ 50%
4 | N=C(N)NC(=O)OCc1cccc(-c2cnc(N3CC(=NOCC(CO)CO)C3)c(F)c2)c1F [Example 96, 2-Fluoro-3-{5-fluoro-6-[3-{[3-hydroxy-2-(hydroxymethyl)propoxy]imino}azetidin-1-yl]pyridin-3-yl}benzyl carbamimidoylcarbamate] | ≥ 50% | ≥ 50%
5 | CON=C1CN(c2ncc(-c3cccc(COC(=O)NC(=N)N)c3F)cc2F)C1 [Example 36, 2-fluoro-3-{5-fluoro-6-[3-(methoxyimino)azetidin-1-yl]pyridin-3-yl}benzyl carbamimidoylcarbamate] | ≥ 50% | ≥ 50%
